Paper PMC3102601 (2011)

Molecular target: phosphonoacetate hydrolase (PAc hydrolase) (Pseudomonas fluorescens, UniProt Q51782)
Format: biochemical

Sequence of phosphonoacetate hydrolase (PAc hydrolase) (Q51782 2-407): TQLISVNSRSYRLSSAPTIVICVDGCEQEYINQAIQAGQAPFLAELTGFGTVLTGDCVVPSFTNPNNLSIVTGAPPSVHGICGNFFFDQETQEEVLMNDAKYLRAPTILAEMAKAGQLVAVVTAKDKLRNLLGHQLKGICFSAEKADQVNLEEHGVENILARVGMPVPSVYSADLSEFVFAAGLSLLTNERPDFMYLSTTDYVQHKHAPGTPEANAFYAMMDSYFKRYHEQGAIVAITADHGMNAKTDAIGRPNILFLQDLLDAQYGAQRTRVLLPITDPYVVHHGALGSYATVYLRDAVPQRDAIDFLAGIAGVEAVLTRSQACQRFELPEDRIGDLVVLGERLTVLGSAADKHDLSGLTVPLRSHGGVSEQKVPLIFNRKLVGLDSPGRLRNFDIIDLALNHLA

**Q.** How did the Ki turn out when O=C(O)C(=O)CP(=O)(O)O [phosphonopyruvate] was run?
**A.** The Ki was 1200 ± 800 µM.
